In patent US12357605B2, “Muscle building agent” (KANEKA CORPORATION, priority 2019, dated 2025):

System: muscle satellite cells
Test: Evaluation of muscle satellite cell activating effect (ratio of BrdU positive cells)
Assay type: cell-based, SD rat
Conditions: for Ratio of activated muscle satellite cells, Mean: 24 hours culture, BrdU positive cells / total cells, solvent control 41.3%; for muscle satellite cell activating effect: in comparison with the solvent control, result in words
Experimental: The muscle satellite cells activation effect can be evaluated by, for example, the following in vitro test. Specifically, muscle satellite cells are isolated from an animal and cultured in a culture medium containing test sample for 24 hours. Then, bromodeoxyuridine (BrdU) is added thereto at the final concentration of 10 μM, and the mixture is incubated for 2 hours. Next, the muscle satellite cells are fixed at 4° C. for 10 minutes with ice-cooled methanol containing 0.1% H2O2 and are subjected to DNA denaturation treatment at 37° C. for 1 hour using 2 N hydrochloric acid, and BrdU positive cells are detected by using anti-BrdU antibody as a primary antibody, HRP-conjugated anti-mouse IgG antibody as a secondary antibody, and coloring with diaminobenzidine (DAB). The ratio of BrdU positive cells to the total number of cells is calculated as the ratio of activated muscle satellite cells. It is judged with respect to the ratio of activated muscle satellite cells of the muscle building agent according to the present invention that muscle satellite cells are activated in the case where a ratio of activated muscle satellite cells is increased by a treatment with a test substrate in comparison with a solvent control. An increase to a solvent control is preferably 2% or more, more preferably 3% or more and even more preferably 5% or more.
Muscle tissues were isolated from the upper hindlimb and back of 6-month old male SD rat (from Japan SLC). The muscle tissues were trimmed of adipose and connective tissue, minced, and treated with PBS containing 1.25 mg/mL protease (Sigma) at 37° C. for 1 hour. After muscle fiber fragments and tissue debris were removed by centrifugation, the cells were seeded on plates coated with polylysine (Sigma) and fibronectin (Sigma). After the cells were cultured in 5% CO2 atmosphere at 37° C. for 24 hours, muscle satellite cells were isolated by washing with PBS. DMEM (“Dulbecco's Modified Eagle Medium”, Thermo Fisher Scientific) containing 10% horse serum (Thermo Fisher Scientific) was used as a culture media. The culture media is hereinafter abbreviated as “10% HS-DMEM”.
The casuarinin prepared in Example 1 or the stachyurin prepared in Example 2 was dissolved in water and added in 10% HS-DMEM to prepare the 10% HS-DMEM containing casuarinin or stachyurin. The culture medium of the isolated muscle satellite cells were exchanged for the 10% HS-DMEM containing casuarinin or stachyurin, and the muscle satellite cells were cultured for 24 hours. Casuarinin concentrations were adjusted to 0.01 to 1.1 μM (13 to 1000 ng/mL), and stachyurin concentrations were adjusted to 0.09 to 0.4 μM (83 to 333 ng/mL). As a solvent control, 10% HS-DMEM was used.
Bromodeoxyuridine (BrdU, Sigma) was added to the culture medium at the final concentration of 10 μM, and the mixture was incubated for 2 hours. Then, the muscle satellite cells were fixed at 4° C. for 10 minutes with ice-cooled methanol containing 0.1% H2O2 and were further subjected to DNA denaturation treatment using 2 N hydrochloric acid at 37° C. for 1 hour, and BrdU positive cells were detected by using anti-BrdU antibody (Sigma) as a primary antibody, HRP-conjugated anti-mouse IgG antibody (Sigma) as a secondary antibody, and coloring with diaminobenzidine (DAB, Sigma). The ratio of BrdU positive cells to the total number of cells was calculated as the ratio of activated muscle satellite cells. The experiments were performed in 12 independent cell cultures in the case of the solvent control, and in 3 independent cultures in each concentration in the case of casuarinin or stachyurin. Data were expressed as the mean and standard deviation. The “*” in FIGS. 1 and 2 represents that the difference to the solvent control was statistically significant at p<0.05 by Dunnett's test. […]

| SMILES | Ratio of activated muscle satellite cells, Mean (100 ng/mL) [%] | other results |
| --- | --- | --- |
| O=C1OC[C@H]2OC(=O)c3cc(O)c(O)c(O)c3-c3c(O)c(O)c(O)c4c3C(=O)O[C@H]([C@H]3OC(=O)c5c-4c(O)c(O)c(O)c5[C@H]3O)[C@@H]2OC(=O)c2cc(O)c(O)c(O)c2-c2c1cc(O)c(O)c2O [Castalagin, castalagin, reference compound] | 39.4 | – |
| O=C(O[C@@H]1OC2COC(=O)c3cc(O)c(O)c(O)c3-c3c(cc(O)c(O)c3O)C(=O)O[C@H]2[C@@H]2OC(=O)c3cc(O)c(O)c(O)c3-c3c(cc(O)c(O)c3O)C(=O)OC12)c1cc(O)c(O)c(O)c1 (stereo partly drawn) [Casuarictin, casuarictin, reference compound] | 39.2 | – |
| O=C(O[C@@H]1COC(=O)c2cc(O)c(O)c(O)c2-c2c(cc(O)c(O)c2O)C(=O)O[C@H]1[C@@H]1OC(=O)c2cc(O)c(O)c(O)c2-c2c(O)c(O)c(O)c3c2C(=O)O[C@H]1C3O)c1cc(O)c(O)c(O)c1 (stereo partly drawn) [Casuarinin, casuarinin] | 50.8 | Ratio of activated muscle satellite cells, Mean (0.01 μM (13 ng/mL)): 43.3%; Ratio of activated muscle satellite cells, Mean (0.03 μM (25 ng/mL)): 44.9%; Ratio of activated muscle satellite cells, Mean (0.05 μM (50 ng/mL)): 51.3%; Ratio of activated muscle satellite cells, Mean (0.3 μM (250 ng/mL)): 48.8%; Ratio of activated muscle satellite cells, Mean (1.1 μM (1000 ng/mL)): 43.7%; muscle satellite cell activating effect: significant muscle satellite cell activating effect |
| Oc1cc(O)c2c(c1)O[C@@H](c1ccc(O)c(O)c1)[C@H](O)C2 [Catechin, catechin, reference compound] | 42.1 | – |
| O=c1oc2c(O)c(O)cc3c(=O)oc4c(O)c(O)cc1c4c23 [Ellagic acid, ellagic acid, reference compound] | 38.3 | – |
| O=C(O)c1cc(O)c(O)c(O)c1 [Gallic acid, gallic acid, reference compound] | 37.8 | – |
| O=c1c(O[C@@H]2O[C@H](CO)[C@H](O)[C@H](O)[C@H]2O)c(-c2ccc(O)c(O)c2)oc2cc(O)cc(O)c12 [Hyperin, hyperin, reference compound] | 38.2 | – |
| C[C@@H]1OC(Oc2c(-c3cc(O)c(O)c(O)c3)oc3cc(O)cc(O)c3c2=O)[C@H](O)[C@H](O)[C@H]1O (stereo partly drawn) [Myricitrin, myricitrin, reference compound] | 41.8 | – |
| C[C@@H]1O[C@@H](Oc2c(-c3ccc(O)c(O)c3)oc3cc(O)cc(O)c3c2=O)[C@H](O)[C@H](O)[C@H]1O [Quercitrin, quercitrin, reference compound] | 40.0 | – |
| O=C(O[C@@H]1COC(=O)c2cc(O)c(O)c(O)c2-c2c(cc(O)c(O)c2O)C(=O)O[C@H]1[C@@H]1OC(=O)c2cc(O)c(O)c(O)c2-c2c(O)c(O)c(O)c3c2C(=O)O[C@H]1[C@H]3O)c1cc(O)c(O)c(O)c1 [Stachyurin, stachyurin] | – | Ratio of activated muscle satellite cells, Mean (0.09 μM (83 ng/mL)): 44.7%; Ratio of activated muscle satellite cells, Mean (0.4 μM (333 ng/mL)): 48.5%; muscle satellite cell activating effect: significant muscle satellite cell activating effect |
